# Article PMC6337588, “Multi-Target Cinnamic Acids for Oxidative Stress and Inflammation: Design, Synthesis, Biological Evaluation and Modeling Studies” (Molecules, 2018)
# Values joined by “and” are separate entries in the source; they are usually repeats but may differ in a detail not shown here. Equal entries are not always repeated.
# System: not listed separately
# Test: Inhibition of linoleic acid peroxidation (AAPH)
# Assay type: biochemical
# Details: anti-lipid peroxidation, 50 µM
# Text: We also used water-soluble 2,2′-[…](2-amidinopropane) hydrochloride (AAPH) for the generation of free radicals. AAPH has been extensively used as a clean and controllable source of thermally produced alkylperoxyl free radicals. The peroxyl radicals produced by the action of AAPH show total similarity to cellular activities such as lipid peroxidation. […] It seems that the presence of 3,5-di-tert-butyl-group greatly enhances protection against lipid peroxidation (6i/ii and 7i/ii followed by 3ii and 5ii). The lipid peroxidation inhibitory activity seems to be concentration dependent.
# 2,2’-Azobis(2-amidinopropane) dihydrochloride (AAPH) was used as a free radical initiator to start the oxidation reaction. The method was based on the production of conjugated diene hydroperoxide by oxidation of linoleic acid at 234 nm expressed as an increased absorption. Trolox was used as reference compound (93%) (Table 2).
row,SMILES,AAPH% 50 µM [%]
1,"CN(C)c1ccc(C=CC=C(C(=O)O)c2ccc(O)cc2)cc1 [Compound 3ii, 5-(4-(Dimethylamino)phenyl)-2-(4-hydroxyphenyl)penta-2,4-dienoic acid]",71
2,"O=C(O)C(=Cc1cccc(Oc2ccccc2)c1)c1ccc(O)cc1 [Compound 1ii, 2-(4-Hydroxyphenyl)-3-(3-phenoxyphenyl)acrylic acid]",22

# Same assay, conditions: anti-lipid peroxidation, 100 µM
row,SMILES,AAPH% 100 µM [%]
1,"CN(C)c1ccc(C=CC=C(C(=O)O)c2ccc(O)cc2)cc1 [Compound 3ii, 5-(4-(Dimethylamino)phenyl)-2-(4-hydroxyphenyl)penta-2,4-dienoic acid]",95
2,"O=C(O)C(=Cc1cccc(Oc2ccccc2)c1)c1ccc(O)cc1 [Compound 1ii, 2-(4-Hydroxyphenyl)-3-(3-phenoxyphenyl)acrylic acid]",94

# Target: T1, soybean lipoxygenase (Glycine max, UniProt P08170)
# T1 construct: purchased Sigma Chemical, Co. (St. Louis)
# T1 sequence (P08170 1-839): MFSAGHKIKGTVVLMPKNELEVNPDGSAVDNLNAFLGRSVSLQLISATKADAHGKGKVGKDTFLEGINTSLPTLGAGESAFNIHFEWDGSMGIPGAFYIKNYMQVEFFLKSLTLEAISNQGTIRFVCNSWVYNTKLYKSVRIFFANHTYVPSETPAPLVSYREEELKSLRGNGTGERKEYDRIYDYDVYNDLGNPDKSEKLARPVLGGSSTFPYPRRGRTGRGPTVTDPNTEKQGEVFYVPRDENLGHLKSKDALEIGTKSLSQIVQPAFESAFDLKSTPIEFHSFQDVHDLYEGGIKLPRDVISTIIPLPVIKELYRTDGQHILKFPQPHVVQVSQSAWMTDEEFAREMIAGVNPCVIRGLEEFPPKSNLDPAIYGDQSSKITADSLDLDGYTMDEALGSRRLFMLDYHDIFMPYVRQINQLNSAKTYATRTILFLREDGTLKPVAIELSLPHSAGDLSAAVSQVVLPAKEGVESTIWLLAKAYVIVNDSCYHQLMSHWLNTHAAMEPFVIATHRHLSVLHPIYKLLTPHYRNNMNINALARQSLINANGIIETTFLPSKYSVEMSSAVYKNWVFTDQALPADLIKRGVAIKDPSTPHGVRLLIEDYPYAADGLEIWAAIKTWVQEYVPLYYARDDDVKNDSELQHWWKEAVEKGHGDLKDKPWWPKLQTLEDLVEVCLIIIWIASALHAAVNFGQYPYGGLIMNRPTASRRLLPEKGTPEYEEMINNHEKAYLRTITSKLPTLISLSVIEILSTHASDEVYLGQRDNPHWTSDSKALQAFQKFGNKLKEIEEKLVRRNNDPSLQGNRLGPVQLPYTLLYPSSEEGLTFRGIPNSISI
# Test: Soybean lipoxygenase inhibition in vitro
# Assay type: biochemical
# Details: sodium linoleate 0.1 mM, 234 nm, read-out: LOX IC50
# Method: Many research groups have used readily obtainable soybean lipoxygenase, which is a homologue of mammalian lipoxygenase and well studied. Due to its availability and its well-characterised crystal structure, soybean LOX was selected to be used in this study.
# In vitro study was evaluated as reported previously by our group. The tested compounds were incubated at room temperature with sodium linoleate (0.1 mM) and 0.2 mL of enzyme solution (1/9 × 104 w/v in saline). The method was based to the conversion of sodium linoleate to 13-hydroperoxylinoleic acid at 234 nm. […] In order to determine the IC50 values different concentrations were used.
row,IC50 [µM],SMILES
1,89,"CN(C)c1ccc(C=CC=C(C(=O)O)c2ccc(O)cc2)cc1 [Compound 3ii, 5-(4-(Dimethylamino)phenyl)-2-(4-hydroxyphenyl)penta-2,4-dienoic acid]"
2,91.5,"O=C(O)C(=Cc1cccc(Oc2ccccc2)c1)c1ccc(O)cc1 [Compound 1ii, 2-(4-Hydroxyphenyl)-3-(3-phenoxyphenyl)acrylic acid]"

# System: not listed separately
# Test: Experimental lipophilicity as RM values by reversed phase TLC (RPTLC)
# Assay type: physicochemical
# Details: methanol/water 77/23 with 0.1% acetic acid, 24 °C, average of at least 5 measurements
# Text: Lipophilicity is a physicochemical property correlated with the biological activity. Lipophilicity influences ligand-target binding interactions, solubility, absorption, distribution, bioavailability, metabolism and elimination (ADME) and toxicological outcomes. The lipophilicity of the novel cinnamic acids was experimentally measured as RM values using a reverse phase thin layer chromatography (RPTLC) method. This is acknowledged as a reliable, fast and convenient approach for expressing lipophilicity (Table 1). RM relates to the thermodynamic Rf value in a logarithmic form. Bate-Smith and Westall firstly determined lipophilicity as RM values in 1950 [31]. The Br-substituted derivatives 1i–7i are more lipophilic than the OH-substituted ones 1ii–7ii which can be easily explained by their structural characteristics.
# Reversed phase TLC (RPTLC) was performed on silica gel plates impregnated with 55% (v/v) liquid paraffin in light petroleum ether. The mobile phase was a methanol/water mixture (77/23, v/v) containing 0.1% of acetic acid. The plates were developed in closed chromatography tanks saturated with the mobile phase at 24 °C. Spots were detected under UV light. RM values were determined from the corresponding Rf values (from five individual measurements) using the equation RM = log[(1/Rf) − 1] [17, 18, 28].
row,RM (±SD),SMILES
1,−0.642 (0.032),"CN(C)c1ccc(C=CC=C(C(=O)O)c2ccc(O)cc2)cc1 [Compound 3ii, 5-(4-(Dimethylamino)phenyl)-2-(4-hydroxyphenyl)penta-2,4-dienoic acid]"
2,−0.537 (0.002),"O=C(O)C(=Cc1cccc(Oc2ccccc2)c1)c1ccc(O)cc1 [Compound 1ii, 2-(4-Hydroxyphenyl)-3-(3-phenoxyphenyl)acrylic acid]"

# System: not listed separately
# Test: Non enzymatic assay of superoxide radical scavenging activity (PMS/NADH/NBT)
# Assay type: biochemical
# Details: not given
# Method: Superoxide radical is a main cause of oxidative stress, expressing its biological toxicity by the inactivation of iron-sulfur cluster containing enzymes. The superoxide anion radical (O2^−^•) is less toxic than the hydroxyl radical, but still being one of the most known toxic reactive oxygen species (ROS). In this assay the superoxide anion radicals were generated by a non-enzymatically assay and the compounds are tested at 100 μM final concentration (Table 2). Caffeic acid (CA) has been used as a reference compound. Compound 4ii presented the highest activity, followed by compound 3ii. We succeeded to derive a quantitative-structure activity relationship model for this activity in which the topological polar surface (TPAS) of the compounds seem to govern the superoxide anion scavenging activity:% Superoxide Anion Scavenging Activity (100 µM) = 0.019 (±0.007) TPSA + 0.813 (±0.358) n = 6, r = 0.962, r^2 = 0.926, q^2 = 0.694, s = 0.122, Q = 7.885, F1,6 = 3.701, α = 0.1 clog P vs. TPSA 0.
# The superoxide radicals are generated by mixing N-methylphenazonium methyl sulfate (PMS), NADH and air–oxygen and determined by the nitroblue tetrazolium method and measured at 560 nm (Table 2). Caffeic acid was used as reference compound [17, 18, 28].
row,SMILES,O2−•% 100 µM [%]
1,"CN(C)c1ccc(C=CC=C(C(=O)O)c2ccc(O)cc2)cc1 [Compound 3ii, 5-(4-(Dimethylamino)phenyl)-2-(4-hydroxyphenyl)penta-2,4-dienoic acid]",85
2,"O=C(O)C(=Cc1cccc(Oc2ccccc2)c1)c1ccc(O)cc1 [Compound 1ii, 2-(4-Hydroxyphenyl)-3-(3-phenoxyphenyl)acrylic acid]",8

# System: not given
# Test: not given
# Details: not given
row,melting point [°C],SMILES
1,204 to 205,"CN(C)c1ccc(C=CC=C(C(=O)O)c2ccc(O)cc2)cc1 [Compound 3ii, 5-(4-(Dimethylamino)phenyl)-2-(4-hydroxyphenyl)penta-2,4-dienoic acid]"
2,105 to 107,"O=C(O)C(=Cc1cccc(Oc2ccccc2)c1)c1ccc(O)cc1 [Compound 1ii, 2-(4-Hydroxyphenyl)-3-(3-phenoxyphenyl)acrylic acid]"

# System: not listed separately
# Test: ABTS+• decolorization assay
# Assay type: biochemical
# Details: 1 min, 734 nm
# Method: No role for lipophilicity was found. Oxidation of ABTS with potassium persulfate generates directly the ABTS radical cation (ABTS^+•) with no involvement of an intermediary radical, which is then reduced upon adding electron-donating antioxidants.
# In order to produce the ABTS radical cation (ABTS^+•), ABTS stock solution in water (7 mM) was mixed with potassium persulfate (2.45 mM) and left in the dark at room temperature for 12–16 h before use. Our published experimental technique was used (Table 2). The results are recorded after 1 min of the mixing solutions at 734 nm. The results were compared to the appropriate standard inhibitor Trolox.
row,SMILES,ABTS+•% 100 µM
1,"CN(C)c1ccc(C=CC=C(C(=O)O)c2ccc(O)cc2)cc1 [Compound 3ii, 5-(4-(Dimethylamino)phenyl)-2-(4-hydroxyphenyl)penta-2,4-dienoic acid]",63%
2,"O=C(O)C(=Cc1cccc(Oc2ccccc2)c1)c1ccc(O)cc1 [Compound 1ii, 2-(4-Hydroxyphenyl)-3-(3-phenoxyphenyl)acrylic acid]",83.4% and 83%

# System: not listed separately
# Test: Reducing activity of the stable radical DPPH
# Assay type: biochemical
# Details: 50 µM, 20 min
# Method: The substituted acids were monitored for the antioxidant activity by the use of the stable 2,2-diphenyl-1-picrylhydrazyl radical (DPPH) at concentration 50 µM and 100 µM after 20 and 60 min (Table 1). In this assay the DPPH radical is reduced by single electron transfer from the antioxidant. Strong antioxidants are the phenoxide anions from phenolic compounds like catechol and derivatives, such as nordihydroguaretic acid (NDGA), the reference compound. The compounds presented medium reducing abilities from 29–61%, due to steric reasons; small differences were found among the compounds with time and concentration. 4-Br-substituted-3 phenyl acetic acid derivatives (Series I) are equipotent to 4-OH-substituted-3 phenyl acetic acid derivatives (Series II). No differences were observed between 4i and 5i and 4ii and 5ii.
# To a solution of DPPH in absolute ethanol an equal volume of the compounds dissolved in DMSO was added. The final concentrations of the measured solutions of the novel acids were 50 and 100 µM starting from a stock solution (10 mM) in DMSO. The absorbance was recorded at 517 nm, after 20 and 60 min at room temperature (Table 1).
row,SMILES,RA% 50 µM 20 min [%]
1,"CN(C)c1ccc(C=CC=C(C(=O)O)c2ccc(O)cc2)cc1 [Compound 3ii, 5-(4-(Dimethylamino)phenyl)-2-(4-hydroxyphenyl)penta-2,4-dienoic acid]",43
2,"O=C(O)C(=Cc1cccc(Oc2ccccc2)c1)c1ccc(O)cc1 [Compound 1ii, 2-(4-Hydroxyphenyl)-3-(3-phenoxyphenyl)acrylic acid]",40

# Same assay, conditions: 50 µM, 60 min
row,SMILES,RA% 50 µM 60 min [%]
1,"CN(C)c1ccc(C=CC=C(C(=O)O)c2ccc(O)cc2)cc1 [Compound 3ii, 5-(4-(Dimethylamino)phenyl)-2-(4-hydroxyphenyl)penta-2,4-dienoic acid]",35
2,"O=C(O)C(=Cc1cccc(Oc2ccccc2)c1)c1ccc(O)cc1 [Compound 1ii, 2-(4-Hydroxyphenyl)-3-(3-phenoxyphenyl)acrylic acid]",39

# Same assay, conditions: 100 µM, 20 min
row,SMILES,RA% 100 µM 20 min [%]
1,"CN(C)c1ccc(C=CC=C(C(=O)O)c2ccc(O)cc2)cc1 [Compound 3ii, 5-(4-(Dimethylamino)phenyl)-2-(4-hydroxyphenyl)penta-2,4-dienoic acid]",44
2,"O=C(O)C(=Cc1cccc(Oc2ccccc2)c1)c1ccc(O)cc1 [Compound 1ii, 2-(4-Hydroxyphenyl)-3-(3-phenoxyphenyl)acrylic acid]",45

# Same assay, conditions: 100 µM, 60 min
row,SMILES,RA% 100 µM 60 min [%]
1,"CN(C)c1ccc(C=CC=C(C(=O)O)c2ccc(O)cc2)cc1 [Compound 3ii, 5-(4-(Dimethylamino)phenyl)-2-(4-hydroxyphenyl)penta-2,4-dienoic acid]",46
2,"O=C(O)C(=Cc1cccc(Oc2ccccc2)c1)c1ccc(O)cc1 [Compound 1ii, 2-(4-Hydroxyphenyl)-3-(3-phenoxyphenyl)acrylic acid]",47

# System: not listed separately
# Test: Competition with DMSO for hydroxyl radicals (Fe3+/ascorbic acid system)
# Assay type: biochemical
# Details: hydroxyl radical scavenging
# Method: Competition of the novel substituted acids with DMSO for hydroxyl radicals was measured. Hydroxyl radicals were generated using the Fe^3+/ascorbic acid system and expressed as a percentage inhibition of formaldehyde production in the presence of each compound at 100 μM (Table 2). All the synthesized derivatives strongly scavenge hydroxyl radicals at 100 μM in comparison to the reference compound Trolox.
# The hydroxyl radicals generated by the Fe^3+/ascorbic acid system, were detected by the determination of formaldehyde produced from the oxidation of DMSO (Table 2). Trolox was used as reference compound [17, 18, 28].
row,SMILES,HO•% 100 µM [%]
1,"CN(C)c1ccc(C=CC=C(C(=O)O)c2ccc(O)cc2)cc1 [Compound 3ii, 5-(4-(Dimethylamino)phenyl)-2-(4-hydroxyphenyl)penta-2,4-dienoic acid]",99
2,"O=C(O)C(=Cc1cccc(Oc2ccccc2)c1)c1ccc(O)cc1 [Compound 1ii, 2-(4-Hydroxyphenyl)-3-(3-phenoxyphenyl)acrylic acid]",100
